Test results taken from US20230321008A1, “INHIBITORS OF ACID SPHINGOMYELINASE FOR PREVENTING AND TREATING THE COVID-19 DISEASE” (priority 2020, published 2023).
Entries after “also recorded” stand apart in the source; their conditions may differ.

What was measured:
[1] = tested on: ceramide-enriched membrane domains; conditions: in vitro; cited from earlier work
[2] = tested on: SARS-CoV-2; conditions: cited from earlier work
[3] = target: T1, acid sphingomyelinase (ASM) (Homo sapiens, UniProt P17405); conditions: cited from earlier work
T1 sequence (P17405 47-631): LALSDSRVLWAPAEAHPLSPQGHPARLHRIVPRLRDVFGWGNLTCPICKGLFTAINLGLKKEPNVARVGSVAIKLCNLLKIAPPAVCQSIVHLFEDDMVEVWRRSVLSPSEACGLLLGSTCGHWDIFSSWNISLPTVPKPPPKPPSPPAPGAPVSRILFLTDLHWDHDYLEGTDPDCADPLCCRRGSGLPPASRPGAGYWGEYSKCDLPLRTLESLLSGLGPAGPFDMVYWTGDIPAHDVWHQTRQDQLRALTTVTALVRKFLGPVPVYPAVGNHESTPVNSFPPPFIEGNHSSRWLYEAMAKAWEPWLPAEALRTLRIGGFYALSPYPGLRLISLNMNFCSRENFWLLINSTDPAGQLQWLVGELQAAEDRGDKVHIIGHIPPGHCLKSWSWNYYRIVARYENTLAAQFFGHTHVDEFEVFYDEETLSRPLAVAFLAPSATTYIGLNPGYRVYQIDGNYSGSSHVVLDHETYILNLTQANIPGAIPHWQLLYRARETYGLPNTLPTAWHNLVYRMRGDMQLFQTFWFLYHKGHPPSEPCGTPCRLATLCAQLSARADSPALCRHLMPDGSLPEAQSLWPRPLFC

[4] = tested on: SARS-CoV-2; conditions: cited from earlier work; remark: listed apart in the source
[5] = tested on: SARS-CoV-2; conditions: in vitro; cited from earlier work
[6] = tested on: COVID-19; conditions: randomized double-blind controlled study; cited from earlier work
[7] = tested on: severe COVID-19; assay: Example 1: multicenter observational retrospective cohort study, FIASMA psychotropic medication use at baseline and intubation or death in patients with mental disorder; format: in vivo, human; conditions: patients with mental disorder hospitalized for severe COVID-19; vs not exposed
Description: We conducted a multicenter observational retrospective cohort study at 36 AP-HP hospitals from the beginning of the epidemic in France, i.e. January 24th, until May 1st. We included all adults aged 18 years or over with a mental disorder who have been hospitalized in these medical centers for severe COVID-19. Mental disorder was defined as having at least one current International Statistical Classification of Diseases and Related Health Problems (ICD-10) diagnosis of mental disorder (F01-F99) during the visit or an ongoing prescription of any antidepressant, antipsychotic, or mood stabilizer (i.e. lithium or antiepileptic medications with mood stabilizing effects) for a psychiatric disorder at hospital admission. COVID-19 was ascertained by a positive reverse-transcriptase-polymerase-chain-reaction (RT-PCR) test from analysis of nasopharyngeal or oropharyngeal swab specimens. […]
We calculated frequencies of baseline characteristics described above in patients receiving or not receiving a FIASMA psychotropic medication and compared them using standardized mean differences (SMD). […]

[8] = tested on: COVID-19; assay: Example 3: multicenter observational retrospective study, hydroxyzine use and death in patients admitted to hospital with COVID-19; format: in vivo, human
[9] = target: serotonin 5-HT2A-receptor (Homo sapiens, UniProt P28223); conditions: cited from earlier work
Chain of serotonin 5-HT2A-receptor (P28223 whole entry): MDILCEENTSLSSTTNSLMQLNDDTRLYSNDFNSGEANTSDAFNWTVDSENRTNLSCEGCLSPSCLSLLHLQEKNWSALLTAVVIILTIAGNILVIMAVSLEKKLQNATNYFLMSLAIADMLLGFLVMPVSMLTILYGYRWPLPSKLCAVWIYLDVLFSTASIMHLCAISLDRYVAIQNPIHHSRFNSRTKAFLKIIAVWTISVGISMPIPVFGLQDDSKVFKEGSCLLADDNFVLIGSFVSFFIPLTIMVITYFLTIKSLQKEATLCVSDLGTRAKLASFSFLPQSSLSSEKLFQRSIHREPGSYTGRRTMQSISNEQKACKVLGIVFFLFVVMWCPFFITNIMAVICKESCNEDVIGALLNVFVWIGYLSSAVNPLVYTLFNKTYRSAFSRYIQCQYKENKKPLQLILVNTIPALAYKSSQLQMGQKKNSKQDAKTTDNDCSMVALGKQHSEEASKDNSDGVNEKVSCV

[10] = target: dopamine D2 receptor (Homo sapiens, UniProt P14416); conditions: cited from earlier work
Chain of dopamine D2 receptor (P14416 whole entry, species assumed): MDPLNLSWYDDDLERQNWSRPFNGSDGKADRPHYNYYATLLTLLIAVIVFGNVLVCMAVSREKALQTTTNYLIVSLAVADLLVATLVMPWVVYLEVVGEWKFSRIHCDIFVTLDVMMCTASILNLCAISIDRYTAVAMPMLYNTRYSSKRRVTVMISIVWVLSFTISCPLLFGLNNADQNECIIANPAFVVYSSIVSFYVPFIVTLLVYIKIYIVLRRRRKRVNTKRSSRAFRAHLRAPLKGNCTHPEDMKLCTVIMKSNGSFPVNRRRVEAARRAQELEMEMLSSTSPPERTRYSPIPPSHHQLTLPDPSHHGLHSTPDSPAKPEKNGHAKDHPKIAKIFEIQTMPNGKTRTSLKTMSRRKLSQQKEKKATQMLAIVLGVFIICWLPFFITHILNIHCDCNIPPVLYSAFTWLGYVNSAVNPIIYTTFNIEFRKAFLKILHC

[11] = tested on: severe COVID-19; assay: Example 2: multicenter observational retrospective cohort study, FIASMA medication use at baseline and intubation or death in patients hospitalized for severe COVID-19; format: in vivo, human; conditions: vs no FIASMA medication
Description: We included all adults aged 18 years or over who have been hospitalized in these medical centers for severe COVID-19. COVID-19 was ascertained by a positive reverse-transcriptase-polymerase-chain-reaction (RT-PCR) test from analysis of nasopharyngeal or oropharyngeal swab specimens. Severe COVID-19 at admission was defined as having at least one of the following criteria: respiratory rate > 24 breaths/min or < 12 breaths/min, resting peripheral capillary oxygen saturation in ambient air < 90%, temperature > 40° C., systolic blood pressure < 100 mm Hg or high lactate levels. AP-HP clinical Data Warehouse initiatives ensure patient information and informed consent regarding the different approved studies through a transparency portal in accordance with European Regulation on data protection and authorization n°1980120 from National Commission for Information Technology and Civil Liberties (CNIL).
We used data from the AP-HP Health Data Warehouse (‘Entrepôt de Données de Santé (EDS)’). This warehouse contains all available clinical data on all inpatient visits for COVID-19 to any Greater Paris University hospital. The data included patient demographic characteristics, vital signs, laboratory test and RT-PCR test results, medication administration data, medication lists during current and past hospitalizations in AP-HP hospitals, current diagnoses, discharge disposition, and death certificates.
We obtained the following data for each patient at the time of the hospitalization: sex; age, which was categorized into 4 classes based on the OpenSAFELY study results (i.e. 18-50, 51-70, 71-80, 81+); hospital, which was categorized into 4 classes following the administrative clustering of AP-HP hospitals in Paris and its suburbs based on their geographical location (i.e., AP-HP Centre - Paris University, Henri Mondor University Hospitals and at home hospitalization; AP-HP Nord and Hôpitaux Universitaires Paris Seine-Saint-Denis; AP-HP Paris Saclay University; and AP-HP Sorbonne University); obesity, which was defined as having a body mass index higher than 30 kg/m^2 or an International Statistical Classification of Diseases and Related Health Problems (ICD-10) diagnosis code for obesity (E66.0, E66.1, E66.2, E66.8, E66.9); self-reported current smoking status; and any medication prescribed according to compassionate use or as part of a clinical trial (e.g. hydroxychloroquine, azithromycin, remdesivir, tocilizumab, sarilumab, or dexamethasone). To take into account possible confounding by indication bias for FIASMA medication, we recorded whether patients had any current diagnosis, based on ICD-10 diagnosis codes, for neoplasms and diseases of the blood (C00-D89); mental disorders (F01-F99); diseases of the nervous system (G00-G99); cardiovascular disorders (I00-I99); respiratory disorders (J00-J99); digestive disorders (K00-K95); dermatological disorders (L00-L99); diseases of the musculoskeletal system (M00-M99); diseases of the genitourinary system (N00-N99); endocrine disorders (E00-E89); and eye-ear-nose-throat disorders (H00-H95).
All medical notes and prescriptions are computerized in Greater Paris University hospitals. Medications including their dosage, frequency, date, and mode of administration were identified from medication administration data or scanned handwritten medical prescriptions, through two deep learning models based on BERT contextual embeddings, one for the medications and another for their mode of administration. The model was trained on the APmed corpus, a previously annotated dataset for this task. Extracted medications names were then normalized to the Anatomical Therapeutic Chemical (ATC) terminology using approximate string matching.
FIASMA medication use was defined as receiving at least one FIASMA medication at study baseline, i.e. within the first 24 hours of hospital admission, and before the end of the index hospitalization, intubation or death.

[12] = tested on: α1-adrenergic receptor; conditions: cited from earlier work
[13] = tested on: SARS-CoV-2; conditions: oral use in healthy volunteers; cited from earlier work

| Structure (SMILES) | Formation of ceramide-enriched membrane domains (in words) [1] | In vitro inhibition of acid sphingomyelinase (in words) [3] | Infection of Vero cells with SARS-CoV-2 (in words) [4] | Inhibition of viral replication (in words) [5] | Association of use at baseline with risk of intubation or death (in words) [7] | Association of use at baseline with risk of intubation or death (in words) [11] | further results |
| --- | --- | --- | --- | --- | --- | --- | --- |
| CNCCC(Oc1ccc(C(F)(F)F)cc1)c1ccccc1 (stereo not drawn) [Fluoxetine, fluoxetine] | inhibited ASM and the formation of ceramide-enriched membrane domains | inhibited ASM; also recorded: in vitro inhibit acid sphingomyelinase with varying degrees | prevented Vero cells from being infected with SARS-CoV-2 | inhibition of viral replication |  |  | Infection of cultured epithelial cells with SARS-CoV-2 (in words) [2]: inhibition of the infection of cultured epithelial cells with SARS-CoV-2 |
| COCCCC/C(=N\OCCN)c1ccc(C(F)(F)F)cc1 [fluvoxamine] |  | in vitro inhibit acid sphingomyelinase with varying degrees |  |  |  |  | Effect on COVID-19 disease progression (in words) [6]: significant protective effects on COVID-19 disease progression |
| OCCOCCN1CCN(C(c2ccccc2)c2ccc(Cl)cc2)CC1 (stereo not drawn) [Hydroxyzine, 2-[2-[4-[(4-chlorophenyl)-phenylmethyl]piperazin-1-yl]ethoxy]ethanol] |  |  |  |  | reached statistical significance across all main and sensitivity analyses | reached statistical significance across all main and sensitivity analyses | Association of cumulative dose with risk of death (in words) ([8]; higher rather than lower cumulative doses): significantly associated with lower risk of death; also recorded: significantly stronger at higher rather than lower cumulative doses; Association of use with risk of death (in words) ([8]; hospitalized adult patients with COVID-19): significantly and substantially associated with reduced risk of death; also recorded: significantly associated with reduced mortality in patients hospitalized for COVID-19; also recorded: significantly and substantially associated with lower risk of death; Antagonist action at the serotonin 5-HT2A-receptor (in words) [9]: weakly acts as an antagonist; Antagonist action at the dopamine D2 receptor (in words) [10]: weakly acts as an antagonist; Antagonist action at the α1-adrenergic receptor (in words) [12]: weakly acts as an antagonist |
| CN(C)CCC=C1c2ccccc2CCc2ccccc21 [Amitriptyline, amitriptyline] | inhibited ASM and the formation of ceramide-enriched membrane domains | inhibited ASM; also recorded: in vitro inhibit acid sphingomyelinase with varying degrees | prevented Vero cells from being infected with SARS-CoV-2 |  |  |  | Infection of freshly isolated nasal epithelial cells with SARS-CoV-2 (in words) [13]: efficiently blocked infection of freshly isolated nasal epithelial cells with SARS-CoV-2 |
| CN(C)CCC[C@@]1(c2ccc(F)cc2)OCc2cc(C#N)ccc21 [Escitalopram, escitalopram] | inhibited ASM and the formation of ceramide-enriched membrane domains | inhibited ASM; also recorded: in vitro inhibit acid sphingomyelinase with varying degrees | prevented Vero cells from being infected with SARS-CoV-2 | inhibition of viral replication was not observed | reached statistical significance across all main and sensitivity analyses | reached statistical significance across all main and sensitivity analyses |  |
